The results in this text go back to article PMC10954694, “Expression of ALS-PFN1 impairs vesicular degradation in iPSC-derived microglia” (Nature Communications, 2024).

Assay [1] concerns the target T1, profilin-1 (PFN1) M114T (Homo sapiens, UniProt P07737, M114T).
T1 construct: recombinant, SUMO tag cleaved, 15N labeled
The assay is described as follows: […]-1H HSQC NMR titration (global fit); DSF. It is filed as binding.

Assay [2] has as its target T2, profilin-1 (PFN1) WT (Homo sapiens, UniProt P07737).
T2 construct: recombinant, SUMO tag cleaved, 15N labeled
The assay is described as follows: […]-1H HSQC NMR titration (global fit); DSF. It is filed as binding.

T2 sequence (P07737 2-140): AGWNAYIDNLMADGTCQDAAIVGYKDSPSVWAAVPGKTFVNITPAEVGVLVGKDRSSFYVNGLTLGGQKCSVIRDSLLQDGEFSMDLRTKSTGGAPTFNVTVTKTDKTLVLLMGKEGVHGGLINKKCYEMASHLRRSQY
T1 sequence (P07737 2-140 M114T): as the sequence (P07737 2-140) above, with M113T counted along it

The term Kd denotes a measure of binding affinity in units of concentration. A higher Kd goes with a looser complex. `CCCCCCCC(=O)OC[C@H](COP(=O)(O)O[C@@H]1[C@H](O)[C@H](OP(=O)(O)O)[C@@H](O)[C@H](O)[C@H]1O)OC(=O)CCCCCCC` [PI3P]: the Kd in assay [1] was determined as 370 ± 30 µM; in assay [2], 1880 ± 190 µM.
